Like-named read-outs stand apart in the source and are kept apart here.
Assays:
KK-Ay mice = system: KK-Ay mice
Experimental: Pathological amelioration of polygodial was examined using a type II diabetes model mice. Experiments were carried out with ten male 5-week old KK-Ay mice (CLEA Japan, Inc.) per group. Polygodial was dissolved in an olive oil so as to have a concentration of 0.03%, and the solution was forcibly orally administered to the mice once a day at 1 mg/kg weight for consecutive days. An olive oil was administered to each of mice in the control group at 3.3 mL/kg weight in the same manner. On the day before the beginning of administration and on the twenty-first day, blood was collected from the vein of mouse tails, and a blood glucose level was determined with a simple blood glucose meter, ACCU-CHEK Compact (manufactured by Roche Diagnostics K.K.). In addition, on the twenty-second day, blood was collected from the abdominal aorta, and the insulin concentration in serum was determined with Lebis Insulin Kit (manufactured by Shibayagi Co., Ltd.).

[1] = system: mature adipocytes (3T3-L1 cells); experiment: Synergistic enhancing action by polygodial and insulin on glucose uptake; type: cell-based; conditions: FIG. 21
Experimental: The amount of 2-deoxyglucose uptake into mature adipocytes stimulated with the sample in the adipocytes was determined partly in accordance with the method described in Example 1 as the evaluation of synergistic enhancing action by a low-concentration polygodial and a low-concentration insulin on glucose uptake.
The mature adipocytes were prepared according to the method described in Example 1.
After the termination of the culture, the medium was removed, and the cells were washed twice with a Dulbecco's modified Eagle's medium containing 0.1% (w/v) bovine serum albumin. Thereafter, the cells were cultured at 37° C. overnight in the presence of 5% carbonic dioxide gas. After the overnight culture, the cells were washed twice with a HEPES buffered saline (140 mM NaCl, 5 mM KCl, 2.5 mM MgSO4, 1 mM CaCl2, 20 mM HEPES-Na (pH 7.4)). The amount 0.9 mL of the same buffer was added thereto. The cells were cultured at 37° C. for 45 minutes. Subsequently, polygodial was added thereto so as to have a final concentration of 300 nM, and insulin was added thereto so as to have a final concentration of 0.05 μg/mL. The cells were further cultured for 30 minutes. […] In addition, a group without addition of the sample was used as a negative control. Thereafter, the amount of 2-deoxy-[1,2-^3H(N)]-glucose taken into the adipocytes was determined in the same manner as in the method described in Example 1.

[2] = system: mature adipocytes (3T3-L1 cells); experiment: Enhancing action on glucose uptake: 2-deoxyglucose uptake into mature adipocytes; type: cell-based
Experimental: The induction of differentiation into mature adipocytes was carried out by partially modifying the method of Rubin C. S. et al. (JBC. 253 7570-7578, 1978). 3T3-L1 cells (ATCC CCL-92.1) were suspended in a 10% calf serum (manufactured by ICN)-containing Dulbecco's modified Eagle's medium (manufactured by Sigma, D6046) containing 200 μM ascorbic acid so as to have a density of 4×10^3 cells/mL, and the suspension was put in each well of a 12-well microtiter plate in an amount of 2 mL per well. The cells were cultured at 37° C. for 7 days in the presence of 5% carbon dioxide gas. On the seventh day, the medium was exchanged with […] of a 10% fetal bovine serum (manufactured by GIBCO)-containing Dulbecco's modified Eagle's medium containing 200 μM ascorbic acid, 0.25 μM dexamethasone, 10 μg/mL insulin (manufactured by TAKARA BIO INC.) and 0.5 mM 3-isobutyl-1-methylxanthine (manufactured by Nacalai Tesque, Inc., 19624-86). After 45 hours, the medium was exchanged with 2 mL of a 10% fetal bovine serum-containing Dulbecco's modified Eagle's medium containing 200 μM ascorbic acid and 5 μg/mL insulin. The medium was exchanged on after 2 days and 5 days, and the cells were cultured for 7 days, to give mature adipocytes.
As the evaluation of enhancing action on glucose uptake, and also as the evaluation of insulin-mimetic action, the amount of 2-deoxyglucose uptake into mature adipocytes stimulated with the sample in the adipocytes was determined.
After the termination of the culture, the medium was removed, and the cells were washed twice with a 0.1% (w/v) bovine serum albumin (manufactured by Sigma, A8022)-containing Dulbecco's modified Eagle's medium. Thereafter, 1 mL of the same medium was put to each well. The cells were cultured overnight at 37° C. in the presence of 5% carbon dioxide gas. After the overnight culture, the cells were washed twice with a HEPES buffered saline (140 mM NaCl, 5 mM KCl, 2.5 mM MgSO4, 1 mM CaCl2, 20 mM HEPES-Na (pH 7.4)), and 0.9 mL of the same buffer was added thereto. The cells were cultured at 37° C. for 75 minutes. […] […] Thereafter, 100 μL of a HEPES buffered saline containing 2-deoxy-[1,2-^3H(N)]-glucose (manufactured by PerkinElmer Life Sciences Inc., NET549A) and 1 mM 2-deoxyglucose (manufactured by Nacalai Tesque, Inc., 10722-11) was added thereto at a final concentration of 0.5 μCi/mL, and the cells were further cultured at 37° C. for 10 minutes. After the termination of the culture, the supernatant was removed, the cells were washed three times with a phosphate buffer cooled to 4° C., and 0.5 mL of a 1% Nonidet P-40-containing phosphate buffer was added to lyse the cells, whereby 2-deoxy-[1,2-^3H(N)]-glucose taken into the cells was eluted. The radioactivity was determined with a liquid scintillation counter LS6500 (manufactured by Beckmann) using 25 μL of the supernatant with Ultima Gold (manufactured by PerkinElmer Life Sciences Inc., 6013329) as a scintillation cocktail.

[3] = system: glucose transporter (mature adipocytes); experiment: Influence of cytochalasin B on 2-deoxyglucose uptake in mature adipocytes; type: cell-based
Experimental: Specifically, as a sample, there was set a group with addition of a dimethyl sulfoxide solution of polygodial so as to have a final concentration of 3 μM. […] Furthermore, in each group, there was set a group with addition of cytochalasin B (manufactured by Nacalai Tesque, Inc., 10435-81) so as to have a final concentration 40 μM at the same time as the time of addition of the sample and insulin. Thereafter, the amount of 2-deoxy-[1,2-^3H(N)]-glucose taken into the adipocytes was determined in the same manner.

ICR mice = conditions: for Blood Glucose Level, Before Administration of Sample: ICR mice fasted 18 hours, Mean ± Standard Error; for Blood Glucose Level, Before Glucose Tolerance Test: 1 hour after
Experimental: After fasting the mice for 18 hours, polygodial was dissolved in an olive oil so as to have a concentration of 0.3%, and the solution was forcibly orally administered to the mice at 10 mg/kg weight. An olive oil was administered to each of mice in the control group at 3.3 mL/kg weight in the same manner. After 1 hour from the administration, a 20% glucose solution was administered at 2 g/kg weight. Here, the glucose was administered in two ways, forcible oral administration and intraperitoneal administration. Before administration of the sample, before the glucose tolerance test, and after given periods of time after the glucose tolerance test, blood was collected from the vein of mouse tails, and a blood glucose level was determined.

mouse = experiment: Single-dose oral toxicity in mouse; type: in vivo; conditions: 1 g/kg weight
Experimental: No toxicity is found even when the above-mentioned effective ingredient used in the present invention is administered in an effective dose for the exhibition of its action.

[4] = 1 mg/kg weight orally once a day, KK-Ay mice
[5] = polygodial 10 mg/kg orally, glucose 2 g/kg by forcible oral administration
[6] = polygodial 10 mg/kg orally, glucose 2 g/kg by intraperitoneal administration

`CC1(C)CCC[C@]2(C)[C@@H](C=O)C(C=O)=CC[C@@H]12` [polygodial] was tested, and the “action of ameliorating insulin resistance” value (KK-Ay mice; [4]) was “action of ameliorating insulin resistance was found”, the “blood glucose level (in words)” value (KK-Ay mice; [4]) was “lowered” and the “insulin concentration (in words)” value (KK-Ay mice; [4]) was “lowered”. For the same compound, the “Blood Glucose Level, Twenty-First Day” value (KK-Ay mice; 1 mg/kg weight orally once a day, twenty-first day, KK-Ay mice, Mean ± Standard Error) was 231 ± 36 mg/dL, the “Insulin (concentration in serum)” value (KK-Ay mice; 1 mg/kg weight orally once a day, twenty-second day, KK-Ay mice, Mean ± Standard Error) was 8.4 ± 4 ng/mL and the “Blood Glucose Level, Previous Day” value (KK-Ay mice; day before the beginning of administration, KK-Ay mice, Mean ± Standard Error) was 328 ± 25 mg/dL. For the same compound, the “changes in weight and general symptoms” value (KK-Ay mice; during the experimental period, 1 mg/kg weight orally once a day) was “no changes were found”, the “enhancing action on glucose uptake by simultaneous addition with insulin” value ([1]; polygodial 300 nM added simultaneously with insulin 0.05 μg/mL, versus either alone) was “synergistically increase” and the “2-deoxy-[1,2-3H(N)]-glucose uptake compared to the negative control” value ([1]; polygodial 300 nM alone) was “enhancement of 2-deoxy-[1,2-^3H(N)]-glucose uptake was found”. The “2-deoxy-[1,2-3H(N)]-glucose uptake compared to the negative control” value ([2]; final concentration 3 μM, 1 μM, 0.3 μM or 0.1 μM, FIG. 1) was “enhancement of 2-deoxy-[1,2-^3H(N)]-glucose uptake was found”, the “2-deoxy-[1,2-3H(N)]-glucose uptake compared to the negative control” value [3] was “enhancement of 2-deoxy-[1,2-^3H(N)]-glucose uptake was found” and the “mediation of the enhancing action on glucose uptake” value [3] was “mediated by a glucose transporter”. The “Blood Glucose Level, Before Administration of Sample” value (ICR mice; glucose by forcible oral administration) was 94 ± 7 mg/dL, the “Blood Glucose Level, Before Administration of Sample” value (ICR mice; glucose by intraperitoneal administration) was 77 ± 4 mg/dL and the “Blood Glucose Level, Before Glucose Tolerance Test” value (ICR mice; polygodial 10 mg/kg orally, glucose by forcible oral administration) was 126 ± 7 mg/dL. The “Blood Glucose Level, Before Glucose Tolerance Test” value (ICR mice; polygodial 10 mg/kg orally, glucose by intraperitoneal administration) was 90 ± 7 mg/dL, the “Blood Glucose Level, 30 min. After Glucose Tolerance Test” value (ICR mice; [5]) was 260 ± 15 mg/dL and the “Blood Glucose Level, 60 min. After Glucose Tolerance Test” value (ICR mice; [5]) was 224 ± 18 mg/dL. For the same compound, the “Blood Glucose Level, 120 min. After Glucose Tolerance Test” value (ICR mice; [5]) was 138 ± 9 mg/dL, the “Blood Glucose Level, 30 min. After Glucose Tolerance Test” value (ICR mice; [6]) was 300 ± 56 mg/dL and the “Blood Glucose Level, 60 min. After Glucose Tolerance Test” value (ICR mice; [6]) was 263 ± 34 mg/dL. For the same compound, the “Blood Glucose Level, 120 min. After Glucose Tolerance Test” value (ICR mice; [6]) was 126 ± 10 mg/dL, the “Blood Glucose Level, 180 min. After Glucose Tolerance Test” value (ICR mice; [6]) was 84 ± 5 mg/dL and the “action on the elevation in the blood glucose level (in words)” value (ICR mice; polygodial 10 mg/kg weight, both oral and intraperitoneal administrations of glucose) was “suppressive action”. For the same compound, the “deaths after oral administration” value (mouse) was “no cases of deaths are found”.
For insulin, the “2-deoxy-[1,2-3H(N)]-glucose uptake compared to the negative control” value ([1]; insulin 0.05 μg/mL alone) was “enhancement of 2-deoxy-[1,2-^3H(N)]-glucose uptake was found”, the “2-deoxy-[1,2-3H(N)]-glucose uptake compared to the negative control” value ([2]; positive control, final concentration 1 μg/mL) was “enhancement of 2-deoxy-[1,2-^3H(N)]-glucose uptake was found” and the “2-deoxy-[1,2-3H(N)]-glucose uptake compared to the negative control” value ([3]; insulin 1 μg/mL, without cytochalasin B, FIG. 22) was “enhancement of 2-deoxy-[1,2-^3H(N)]-glucose uptake was found”.

Source: patent publication US20090076136A1, “THERAPEUTIC AGENT” (priority 2003, published 2009)
